Our source for the EC50 values is patent publication US20260325661A1, “ANTIBODY-CONJUGATED IMMUNO-ACTIVATING SMALL MOLECULE COMPOUND, AND USE” (SHENZHEN CONJUGENIX PHARMACEUTICAL TECHNOLOGY CO., LTD, priority 2023, published 2026).

The first assay relates to human peripheral blood mononuclear cells (PBMCs). Nature of the assay: ELISA assay of immunocyte activator: induction of IFN-γ in human PBMCs. The class given is cell-based. The following applies: 24 h, 37 °C, Note a: sample pretreated with human liver microsomal enzyme, 2 h, read-out: EC50 IFN-γ ratio (inducing human PBMCs to produce IFN-γ). As for the experimental part: The immune activity of each compound is represented by the function of inducing human peripheral blood mononuclear cells (PBMCs) to produce the immune cytokine IFN-γ by, and the EC50 values thereof are shown in Table 3.
• 1) Peripheral blood samples from healthy human volunteer were collected into heparin anticoagulant tubes to reach 5 mL of fresh blood, and PBS was added at a ratio of 1:1 to dilute the blood (2 mL+2 mL in conventional blood collection tubes). • 2) 5 mL of lymphocyte separation medium was put in a 15 mL sterile centrifuge tube for use. • 3) The diluted blood was aspirated and slowly added from 1 cm above the separation medium along the tube wall, so that the diluted blood overlaid the separation medium and formed a distinct interface therewith. • 4) The centrifuge tube was centrifuged at 2000 rpm at room temperature for 20 min. Now five layers formed in the centrifuge tube: the top layer was plasma layer, and the layer between the plasma layer and the lymphocyte separation medium was the lymphocyte layer as a white film. • 5) The mononuclear cell layer as a white film in the middle was aspirated carefully and mononuclear cells were aspirated as many as possible. The mononuclear cells were washed by more than 5 volumes of PBS twice, and each time, the mononuclear cells were centrifuged at 1500 rpm for 10 min. • 6) The supernatant was removed, then 1 mL of 1640 medium was added and mixed uniformly. A small amount of the mixture was taken for cell counting.
The prepared PBMCs were plated in a 96-well plate (Costar, 3894) (2×10^5 cells per well). Each compound in Table 3 was taken and added into the wells with plated cells at ten concentrations with uniform gradient distribution (0.0001-10 μM, diluted with […] medium containing […]).
In general terms: An ELISA detects its analyte on a solid surface through an enzyme-linked reagent.
For `C=C(CN1CCC(n2cc(Cn3c(=O)n(COC(=O)OCCOCCOCCOCCNC(=O)CCC(=O)N4Cc5ccccc5C#Cc5ccccc54)c4c(N)nc(O[C@@H](C)CCC)nc43)nn2)CC1)C(=O)OCC` [Compound K55], the EC50 turned out to be 21 nM. Regarding `CCC[C@H](C)Oc1nc(N)c2c(n1)n(CC1CCN(C(=O)/C=C/C(=O)c3ccc(OC)cc3)CC1)c(=O)n2C(=O)NCCNC(=O)OCc1ccc(NC(=O)[C@H](CCCNC(N)=O)NC(=O)[C@@H](NC(=O)CCOCCOCCOCCOCCNC(=O)CCC(=O)N2Cc3ccccc3C#Cc3ccccc32)C(C)C)cc1` [Compound K57], the EC50 came out at 3 nM.

Still in this assay, the particulars now being: 24 h, 37 °C; no pretreatment marked; listed as GY115, 1440 min; read-out: EC50 IFN-γ ratio (inducing human PBMCs to produce IFN-γ).
On to `C#CCCCCC(NC(=O)CCC(=O)NCc1ccc(Cn2c(=O)[nH]c3c(N)nc(OCCOC)nc32)cc1)C(=O)O` (centres unmarked) [SZU-115, reference compound], for which the EC50 was found to be 300 nM.

The same assay, now with this note: Homo sapiens, PBMC, 24 h, 37 °C, Note a: sample pretreated with human liver microsomal enzyme, 2 h, read-out: EC50 IFN-γ ratio (inducing human PBMCs to produce IFN-γ).
On to `CCC[C@H](C)Oc1nc(N)c2c(n1)n(CC1CC[N+]([O-])(CCO)CC1)c(=O)n2C(=O)NCCNC(=O)OCc1ccc(NC(=O)[C@H](CCCNC(N)=O)NC(=O)[C@@H](NC(=O)CCOCCOCCOCCOCCNC(=O)CCC(=O)N2Cc3ccccc3C#Cc3ccccc32)C(C)C)cc1` (some centres unmarked) [Compound K63], for which the EC50 amounted to 80 nM. Still for that read-out and setting: for `C=C(CN(C[C@H](C)c1ccc(-c2c(O)cc(C)c3[nH]c(=O)c4sccc4c23)cc1)C(=O)OCc1ccc(NC(=O)[C@H](CCCNC(N)=O)NC(=O)[C@@H](NC(=O)CCOCCOCCOCCOCCN2C(=O)C=CC2=O)C(C)C)cc1)C(=O)N1CCC(n2cc(Cn3c(=O)n(C(=O)N4CCN(C)CC4)c4c(N)nc(OCCCC)nc43)nn2)CC1` [Compound K62] the value was 10 nM. With `CCOC(=O)NC(=O)n1c(=O)n(Cc2ccc(CNC(=O)CCc3cn(CCOCCOCCOCCNC(=O)CCN4C(=O)C=CC4=O)nn3)cc2)c2nc(OCCOC)nc(N)c21` [Compound K14], the EC50 came to 10 nM.

The same assay, now with this note: Homo sapiens, PBMC, 24 h, 37 °C, no pretreatment marked, read-out: EC50 IFN-γ ratio (inducing human PBMCs to produce IFN-γ).
With `C=C(CN1CCC(n2cc(Cn3c(=O)[nH]c4c(N)nc(O[C@@H](C)CCC)nc43)nn2)CC1)C(=O)O` [GY300], the EC50 came out at 31 nM. With `C#CCn1c(=O)[nH]c2c(N)nc(OCCCC)nc21` [GY100, reference compound], the EC50 turned out to be 110 nM. Same read-out and setting: for `C=C(CC(=O)O)C(=O)NCc1ccc(Cn2c(=O)[nH]c3c(N)nc(OCCOC)nc32)cc1` [KJ-138] the value was 50 nM. For the molecule `COCCOc1nc(N)c2[nH]c(=O)n(Cc3ccc(CNC(=O)CCc4cn(CCOCCOCCOCCNC(=O)CCN5C(=O)C=CC5=O)nn4)cc3)c2n1` [KJ-008], the EC50 is 7 nM. Still for that read-out and setting: the same measure for `C=C(CN(CCCCc1cn(CCOCCOCCOCCn2cc(Cn3c(=O)[nH]c4c(N)nc(OCCCC)nc43)nn2)nn1)C[C@H](C)c1ccc(-c2c(O)cc(C)c3[nH]c(=O)c4sccc4c23)cc1)C(=O)NCCCCCCNC(=O)[C@@H](CCCCn1cc(COCCOCCOCCN=C=S)nn1)NC(=O)CCC(=O)NCc1ccc(Cn2c(=O)[nH]c3c(N)nc(OCCOC)nc32)cc1` [Compound K64]: 10 nM.

Consider `COCCOc1nc(N)c2[nH]c(=O)n(Cc3ccc(CNC(=O)CCC(=O)NC(CCCCc4cn(CCOCCOCCOCCNC(=O)CCN5C(=O)C=CC5=O)nn4)C(=O)NCCOCCOCCOCCOCCNC(=O)CCC(=O)N4Cc5ccccc5C#Cc5ccccc54)cc3)c2n1` (centres unmarked) [Compound K24], for which the EC50 came out at 3 nM. As for `CCCCOc1nc(N)c2[nH]c(=O)n(Cc3ccc(NC(=S)Nc4sc5c(c4C(=O)O)CCCC5)cc3)c2n1` [KJ006], the EC50 is 290 nM. Same read-out and setting: the same measure for `C=CC(=O)N1CCN(c2ncnc3c(F)c(-c4c(F)cccc4OCCc4cn(CCCNc5nc(NCCOCCOCCOCCNC(=O)CCC(=O)NCc6ccc(Cn7c(=O)[nH]c8c(N)nc(OCCOC)nc87)cc6)nc(N6CCC(CNC(=O)OCc7ccc(NC(=O)[C@H](CCCNC(N)=O)NC(=O)[C@@H](NC(=O)CCOCCOCCOCCN=[N+]=[N-])C(C)C)cc7)CC6)n5)nn4)c(Cl)cc23)CC1` [Compound K21]: 6 nM. For `CCC[C@H](C)Oc1nc(N)c2[nH]c(=O)n(CC3CCN(CCO)CC3)c2n1` [KJ-3b, reference compound], the EC50 came to 210 nM.

In the case of `CCCCOc1nc(N)c2[nH]c(=O)n(Cc3cn(CCOCCOCCOCCN(C[C@H](C)c4ccc(-c5c(O)cc(C)c6[nH]c(=O)c7sccc7c56)cc4)C(=O)OCc4ccc(NC(=O)[C@H](CCCNC(N)=O)NC(=O)[C@@H](NC(=O)CCCCCN5C(=O)C=CC5=O)C(C)C)cc4)nn3)c2n1` [Compound K18], the EC50 is 90 nM. Take `C=C(CN1CCC(Cn2c(=O)[nH]c3c(N)nc(OCCCC)nc32)CC1)C(=O)OCC` [KJ-098]: the EC50 is 310 nM. On the same count and under the same terms, for `COCCOc1nc(N)c2[nH]c(=O)n(Cc3ccc(CNC(=O)CCc4cn(CCOCCOCCOCCN(CCOCCOCCOCCn5cc(CCC(=O)NCc6ccc(Cn7c(=O)[nH]c8c(N)nc(OCCOC)nc87)cc6)nn5)C(=O)OCc5ccc(NC(=O)[C@H](CCCNC(N)=O)NC(=O)[C@@H](CC(=O)NCOCCOCCOCCN=[N+]=[N-])C(C)C)cc5)nn4)cc3)c2n1` [Compound K23] the value was 30 nM; for `C=C(CN1CCC(n2cc(Cn3c(=O)[nH]c4c(N)nc(O[C@@H](C)CCC)nc43)nn2)CC1)C(=O)NCCOCCOCCOCCOCCNC(=O)CCC(=O)N1Cc2ccccc2C#Cc2ccccc21` [Compound K54], 18 nM.

As to `CCCCOc1nc(N)c2[nH]cc(Cc3ccc4c(c3)CNCC4)c2n1` [PMQ-1, reference compound], the EC50 turned out to be 320 nM. With `COCCOc1nc(N)c2[nH]c(=O)n(Cc3ccc(CNC(=O)CCC(=O)NC(CCCCc4cn(CCOCCOCCOCCN=C=S)nn4)C(=O)NCCOCCOCCOCCNC(=O)OC4CC/C=C/CCC4)cc3)c2n1` (centres unmarked) [Compound K48], the EC50 was 89 nM. Take `C=C(CN1CCC(n2cc(Cn3c(=O)[nH]c4c(N)nc(O[C@@H](C)CCC)nc43)nn2)CC1)C(=O)OCC` [GY229]: the EC50 came to 28 nM. Take `C=C(CC(=O)OC)C(=O)NCc1ccc(Cn2c(=O)[nH]c3c(N)nc(OCCOC)nc32)cc1` [SZU-275]: the EC50 was 1 nM. The same measure, in the same setting: for `C=CC(=O)Nc1cc(Nc2nccc(-c3cn(C)c4ccccc34)n2)c(OC)cc1N(C)CCN(C)CCCCCCNC(=O)[C@@H](CCCCn1cc(COCCOCCOCCOCCNC(=O)CCC(=O)N2Cc3ccccc3C#Cc3ccccc32)nn1)NC(=O)COCCOCCOCCn1cc(Cn2c(=O)[nH]c3c(N)nc(OCCCC)nc32)nn1` [Compound K36] the value was 110 nM; for `C=CC(=O)Nc1cc(Nc2nccc(-c3cn(C)c4ccccc34)n2)c(OC)cc1N(C)CCN(C)CCCCCCNC(=N)C(CCCCc1cn(CCOCCOCCOCCN=C=S)nn1)NC(=O)CCC(=O)NCc1ccc(Cn2c(=O)[nH]c3c(N)nc(OCCOC)nc32)cc1` (centres unmarked) [Compound K46], 90 nM. Turning to `COCCOc1nc(N)c2[nH]c(=O)n(Cc3ccc(CNC(=O)CCC(=O)NC(CCCCc4cn(CCOCCOCCOCCNC(=O)CCOCCOCCNC(=O)OCC5C6CCC#CCCC65)nn4)C(=O)N[C@H](C(=O)N[C@@H](CCCNC(N)=O)C(=O)Nc4ccc(COC(=O)NC[C@H](C)c5ccc(-c6c(O)cc(C)c7[nH]c(=O)c8sccc8c67)cc5)cc4)C(C)C)cc3)c2n1` (some centres unmarked) [Compound K31], the EC50 was determined as 29 nM.

As for `COCCOc1nc(N)c2[nH]c(=O)n(Cc3ccc(CNC(=O)CCC(=O)NC(CCCCc4cn(CCOCCOCCOCCNC(=O)CCN5C(=O)C=CC5=O)nn4)C(=O)NCCOCCOCCOCCNC(=O)OC4CC/C=C/CCC4)cc3)c2n1` (centres unmarked) [Compound K26], the EC50 amounted to 2 nM.

Regarding `COCCOc1nc(N)c2[nH]c(=O)n(Cc3ccc(CNC(=O)CCC(=O)NC(CCCCc4cnnn4CCOCCOCCOCCN=C=S)C(=O)NCCCC(=O)Nc4ccc(C#CC#N)cc4)cc3)c2n1` (centres unmarked) [Compound K40], the EC50 amounted to 1 nM. As to `CCC[C@H](C)Oc1nc(N)c2[nH]c(=O)n(CC3CCNCC3)c2n1` [KJ-1b, reference compound], the EC50 was 18 nM.

The assay is the same for the next values; noted with them: Homo sapiens, PBMC, 24 h, pH 5, 24 h, 37 °C; Note d: sample pretreated by hydrolysis, acetate buffer pH 5, 37 °C, 72 h; read-out: EC50 IFN-γ ratio (inducing human PBMCs to produce IFN-γ).
Consider `CCCCOc1nc(N)c2c(n1)n(CCCc1cn(CCOCCOCCOCCNC(=O)CCN3C(=O)C=CC3=O)nn1)c(=O)n2COC(=O)OC(C)C` [Compound K41], for which the EC50 was found to be 2 nM.

Still in this assay, the particulars now being: Homo sapiens, PBMC, 24 h, pH 6, 24 h, 37 °C, Note b: sample pretreated with equimolar glutathione, PBS pH 6, 37 °C, read-out: EC50 IFN-γ ratio (inducing human PBMCs to produce IFN-γ).
Turning to `C=C(COC(=O)n1c(=O)n(CCCc2cn(CCOCCOCCOCCOCCN=[N+]=[N-])nn2)c2nc(OCCCC)nc(N)c21)C(=O)OCC` [Compound K44], the EC50 was determined as 2 nM.

The assay is the same for the next values; noted with them: Homo sapiens, PBMC; 24 h, 37 °C; no pretreatment marked; read-out: EC50 IFN-γ ratio (inducing human PBMCs to produce IFN-γ).
With `CC[C@@]1(O)C(=O)OCc2c1cc1n(c2=O)Cc2c-1nc1cc(F)c(C)c3c1c2[C@@H](NC(=O)CO[Si](OCCOCCOCCNC(=O)C(CCCCc1cn(CCOCCOCCOCCNC(=O)CCN2C(=O)C=CC2=O)nn1)NC(=O)CCC(=O)NCc1ccc(Cn2c(=O)[nH]c4c(N)nc(OCCOC)nc42)cc1)(C(C)C)C(C)C)CC3` (some centres unmarked) [Compound K17], the EC50 turned out to be 210 nM.
